Reference: US6815170B1, “Methods for lymph node identification” (John Wayne Cancer Institute, priority 1999, dated 2004)
Entries after “also recorded” stand apart in the source; their conditions may differ.

Key:
[1] = test system: malignant melanoma; conditions: liver and lung; cited from earlier work
[2] = test system: sentinel lymph node; test: Intraoperative lymphatic mapping / sentinel lymph node dissection with histologic evaluation for carbon particles; format: in vivo, Sprague-Dawley rats; conditions: for basins in which afferent lymphatic channel and stained (sentinel) node were identified: 0.04 cc intradermal, lower extremity, incision 5 min after injection
Text: Twenty-two adult Sprague-Dawley rats weighing 300-500 g were obtained after receiving approval from the Animal Care and Use Committee at the Harbor-UCLA Research and Education Institute. All animals were obtained at least one day prior to planned procedures.
Isosulfan blue dye (Lymphazurin 1%) was obtained from Hirsch Industries, Inc. (Richmond, Va.). Carbon dye containing 6% carbon black (# 4415) was obtained from Sanford Corporation (Bellwood, Ill.) and either used alone at full strength or mixed with isosulfan blue and/or sterile normal saline in the concentrations shown in Table 1.
All mapping solutions containing ink were sterilized in an autoclave at 121° C. for 25 m, prior to injection.
All procedures were performed under general anesthesia. Rats were anesthetized with a mixture of ketamine (42.9 mg/kg), xylazine (8.6 mg/kg), and acepromazine (1.4 mg/kg). A half-dose of this mixture was readministered at 60 minutes and then every 30 minutes. Buprenorphine (0.01-0.05 mg/kg) was administered subcutaneously for postoperative analgesia.
The inguinal regions of the animals were shaved. A 29-gauge needle with a 1-cc tuberculin syringe was used to inject 0.04 cc of the mapping solution intradermally just below the medial aspect of the knee on the lower extremity. Five minutes later, and under sterile conditions, an incision was made over the region of the inguinal lymph nodes. […] The lymphatic was followed to the first stained lymph node. Further dissection was carried out to identify additional stained nodes. All stained nodes were removed and placed in formalin. Nonstained nodes in the same drainage basin were removed and fixed in a similar fashion, and analyzed for carbon particles. The identical procedure was performed on the contralateral extremity of each animal using an alternative mapping mixture.
Lymph nodes were placed in paraffin blocks, serially sectioned, and stained with hematoxylin and eosin (H and E). Each lymph node was evaluated by light microscopy for the presence of carbon particles.

SMILES | uptake by non-tumor tissue [1] | basins in which afferent lymphatic channel and stained (sentinel) node were identified ([2]; listed as Isosulfan blue) | basins in which afferent lymphatic channel and stained (sentinel) node were identified ([2]; listed as Isosulfan blue dye) | total number of sentinel nodes ([2]; 6 basins)
CCN(CC)CCNC(=O)c1ccc(I)cc1 [IDAB, N-(diethylaminoethyl)4-iodobenzamide] | taken up in high concentrations by non-melanoma cells in the liver and lung | – | – | –
CCN(CC)c1ccc(C(=C2C=CC(=[N+](CC)CC)C=C2)c2cc(S(=O)(=O)[O-])ccc2S(=O)(=O)[O-])cc1.[Na+] [isosulfan blue dye, isosulfan blue] | – | effectively identified the lymphatic channel and sentinel node(s); also recorded: clearly identified one sentinel node in each paired basin | all 6 | 8
